Measured values as given in article PMC3829888, “A Novel Quantitative Kinase Assay Using Bacterial Surface Display and Flow Cytometry” (PLoS ONE, 2013).
Residues, ends and D or L forms follow the SMILES beside them.

Tests used:
Abl TK = biological target: T1, Abl TK (Homo sapiens, UniProt P00519); assay: BacKin assay, inhibition and substrate competition (surface-displayed abltide phosphorylation, flow cytometry); format: biochemical; conditions: for IC50: 0.5 U/mL Abl kinase, 30 min at 37°C, flow cytometry, biotin-anti-PY/SAPE, average of three independent experiments±SD
T1 construct: purchased Merck Millipore
T1 sequence (P00519 whole entry): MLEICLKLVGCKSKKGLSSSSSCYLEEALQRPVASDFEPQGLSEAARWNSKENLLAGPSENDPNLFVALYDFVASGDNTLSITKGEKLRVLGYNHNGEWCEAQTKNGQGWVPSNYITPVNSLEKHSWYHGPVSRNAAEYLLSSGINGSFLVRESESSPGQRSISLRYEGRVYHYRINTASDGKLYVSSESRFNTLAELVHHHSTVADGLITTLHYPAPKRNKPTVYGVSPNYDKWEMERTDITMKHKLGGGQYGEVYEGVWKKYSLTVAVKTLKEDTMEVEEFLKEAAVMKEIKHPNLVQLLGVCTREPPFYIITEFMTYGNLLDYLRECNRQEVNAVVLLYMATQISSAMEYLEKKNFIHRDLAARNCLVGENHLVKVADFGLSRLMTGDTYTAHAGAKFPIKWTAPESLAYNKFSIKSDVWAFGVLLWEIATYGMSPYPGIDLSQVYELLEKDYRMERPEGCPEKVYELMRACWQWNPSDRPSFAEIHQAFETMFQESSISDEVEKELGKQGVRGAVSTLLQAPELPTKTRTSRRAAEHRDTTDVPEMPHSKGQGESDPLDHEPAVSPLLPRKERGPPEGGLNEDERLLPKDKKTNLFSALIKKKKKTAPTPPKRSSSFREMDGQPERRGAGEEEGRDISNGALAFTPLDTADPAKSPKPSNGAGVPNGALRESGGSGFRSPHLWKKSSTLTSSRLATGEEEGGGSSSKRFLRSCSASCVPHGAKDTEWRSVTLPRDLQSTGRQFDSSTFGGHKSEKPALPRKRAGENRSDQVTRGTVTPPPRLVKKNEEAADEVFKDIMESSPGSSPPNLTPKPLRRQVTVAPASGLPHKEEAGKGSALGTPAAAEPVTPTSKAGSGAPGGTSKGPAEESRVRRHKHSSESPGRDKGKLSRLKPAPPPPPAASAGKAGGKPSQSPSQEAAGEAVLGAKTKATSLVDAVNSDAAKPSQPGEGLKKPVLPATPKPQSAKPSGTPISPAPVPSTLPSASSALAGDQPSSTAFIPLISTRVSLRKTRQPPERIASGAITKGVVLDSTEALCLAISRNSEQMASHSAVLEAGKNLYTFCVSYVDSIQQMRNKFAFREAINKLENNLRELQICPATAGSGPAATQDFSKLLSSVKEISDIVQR

[1] = one U = 1 nmol of phosphate incorporated into 50 µM abltide per minute at 30°C, 100 µM ATP; ref Merck Millipore; cited from earlier work
Protocol: The kinase activity of Bcr-Abl TK is located in the Abl domain (Figure 1). […] The activity of Abl TK was first examined using LC-MS. The time-course for phosphorylation of 60 µM of soluble abltide was followed with 0.5 U/mL Abl TK in kinase buffer (50 mM Tris-HCl, 10 mM MgCl2, 0.1 mM EDTA, 2 mM dithiothreitol and 0.01% (v/v) Brij 35, NEBuffer, New England BioLa ...

Abl kinase [2] = conditions: in words
Abl kinase [3] = assay: Validation of BacKin assay: fluorescence of kinase-treated displaying cells by flow cytometry; format: biochemical, Human; conditions: after 30 min incubation with Abl kinase; 585/42 nm

CC[C@H](C)[C@H](NC(=O)[C@H](C)NC(=O)[C@@H](N)CCC(=O)O)C(=O)N[C@@H](Cc1ccc(O)cc1)C(=O)N[C@@H](C)C(=O)N[C@@H](C)C(=O)N1CCC[C@H]1C(=O)N[C@@H](Cc1ccccc1)C(=O)N[C@@H](C)C(=O)N[C@@H](CCCCN)C(=O)N[C@@H](CCCCN)C(=O)N[C@@H](CCCCN)C(=O)O [abltide] (H-EAIYAAPFAKKK-OH)
IC50 (Abl TK; 50 µM ATP): 21.5 ± 2.64 µM | IC50 (Abl TK; 500 µM ATP): 37.5 ± 3.95 µM

Abl TK: Human active Abl (121 kDa, 1067 U/mg, Merck Millipore)
specific activity [1]: 1067 U/mg

EAIFAAPYAKKK [[Y4F,F8Y]]
inhibition of kinase activity / competition (Abl TK; in words, peptide concentrations ranging from 64 to 0.25 µM, 0.5 U/mL kinase, 30 min, analogue tested with 500 µM ATP, average of two replicates): did not inhibit kinase activity in the concentration range tested | phosphorylation by Abl kinase (Abl kinase [2]): is not phosphorylated by Abl kinase

abltide-displaying cells: E. coli MC1061 displaying KKGEAIYAAPFA fused via spacer GGQSGQ to the N-terminus of the eCPX display scaffold
percentage of fluorescent cells (Abl kinase [3]): ~96%
